The text below walks through data of article PMC3530924 (Bioorganic & medicinal chemistry, 2010).

Like-named read-outs stand apart in the source and are kept apart here.

The term IC50 denotes the midpoint of a concentration-inhibition curve.

In test [1] the target is T1, CT-L activity of purified rabbit 20S proteasome (Oryctolagus cuniculus, UniProt G1SU71+G1T4Q9).
T1 sequence (G1T4Q9 60-263): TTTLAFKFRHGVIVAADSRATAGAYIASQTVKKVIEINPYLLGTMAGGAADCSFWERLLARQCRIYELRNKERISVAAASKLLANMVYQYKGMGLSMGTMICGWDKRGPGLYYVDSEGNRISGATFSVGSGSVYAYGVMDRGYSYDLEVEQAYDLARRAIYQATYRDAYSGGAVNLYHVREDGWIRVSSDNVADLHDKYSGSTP
T1 sequence (G1SU71 29-241): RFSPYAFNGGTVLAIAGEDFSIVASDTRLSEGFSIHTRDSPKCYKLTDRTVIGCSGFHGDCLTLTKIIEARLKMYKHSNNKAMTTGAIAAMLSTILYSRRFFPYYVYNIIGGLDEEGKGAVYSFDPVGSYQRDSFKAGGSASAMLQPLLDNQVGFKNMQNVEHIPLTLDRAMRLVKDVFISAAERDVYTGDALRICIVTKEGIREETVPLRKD
Nature of the test: Fluorometric assay of CT-L proteolytic activity of purified 20S proteasome. In kind it is biochemical.

Test [2] relates to human breast and lung tumors implanted as xenografts. The conditions noted are these: nude mice; cited from earlier work.
The subject of a further test is purified Calpain. Description: Inhibition of purified Calpain. In kind it is biochemical. The settings on record: read-out: IC50 purified Calpain; data not reported in the paper.
Test [3] deals with CT-L activity of rabbit 20S proteasome. Nature of the test: Dialysis. Format: biochemical. The settings on record: compounds 10 µM; for inhibition of CT-L activity of the 20S proteasome in the absence of dialysis: 3 nM rabbit 20S proteasome, 30 min pre-incubation, no dialysis; for time of dialysis at which CT-L activity started to recover: dialysis at 4 °C against assay buffer.
Another test deals with MCF-7 cells. The settings on record: read-out: IC50 cell viability; cited from earlier work.
The test system of test [4] is primary cells derived from patients with multiple myeloma. The conditions noted are these: cited from earlier work.
For test [5], the system named is cancer cell lines derived from prostate, lung and multiple myeloma. The conditions noted are these: cited from earlier work.
The mark [6] stands for this setting: read-out: In vitro IC50 CT-L activity, purified rabbit 20S proteasome, Suc-Leu-Leu-Val-Tyr-AMC, 1 hour at 37 °C, pH 7.6, tested in triplicate at least twice.

With `COc1cnc(NS(=O)(=O)c2ccc(NC3=C(Cl)C(=O)c4ccccc4C3=O)cc2)nc1` [Compound 2e, 4-(3-Chloro-1,4-dioxo-1,4-dihydronaphthalen-2-ylamino)-N-(5-methoxypyrimidin-2-yl)benzenesulfonamide], in test [1], the IC50 was 100 µM.

For `O=C1C(Cl)=C(N(Cc2ccc([N+](=O)[O-])cc2)c2ccc(S(=O)(=O)Nc3ccccn3)cc2)C(=O)c2ccccc21` [Compound 6d, 4-((3-Chloro-1,4-dioxo-1,4-dihydronaphthalen-2-yl)(4-nitrobenzyl)amino)-N-(pyridin-2-yl)benzenesulfonamide], the IC50 in test [1] was over 100 µM.

The compound `CC1=CC(=O)c2ccccc2C1=O` [2-methyl-1,4-naphthoquinone] had an IC50 in test [1] of over 100 µM.

As to `O=C1C(Cl)=C(Nc2ccc(S(=O)(=O)Nc3ccc(Cl)cc3)cc2)C(=O)c2ccccc21` [Compound 2u, 4-(3-Chloro-1,4-dioxo-1,4-dihydronaphthalen-2-ylamino)-N-(4-chlorophenyl)benzenesulfonamide], the IC50 in test [1] is over 100 µM.

Regarding `O=C1C(Cl)=C(Nc2ccc(S(=O)(=O)Nc3ccccn3)cc2)C(=O)c2ccccc21` [PI-083, 4-(3-Chloro-1,4-dioxo-1,4-dihydronaphthalen-2-ylamino)-N-(pyridin-2-yl)benzenesulfonamide], in test [2], the “growth of human breast and lung tumor xenografts” value was “suppresses the growth”. The IC50 was over 30 µM with purified Calpain and 2.31 ± 0.1 µM in the test on MCF-7 cells. Also, the “inhibition of CT-L activity of the 20S proteasome in the absence of dialysis” value in test [3] is given as 88%. The “time of dialysis at which CT-L activity started to recover” value in test [3] worked out at 1 h. The “proliferation and survival of primary cells” value in test [4] is “efficient in inhibiting proliferation and survival”. In test [5], the “apoptosis in cancer cell lines” value is “induces apoptosis”.

With `CC1=C(Nc2ccc(S(=O)(=O)NC(=O)c3ccccc3)cc2)C(=O)c2ccccc2C1=O` [Compound 2l, N-(4-(3-methyl-1,4-dioxo-1,4-dihydronaphthalen-2-ylamino)phenylsulfonyl) benzamide], the IC50 in test [1] was over 100 µM.

Regarding `Cc1cc(NS(=O)(=O)c2ccc(NC3=CC(=O)c4ccccc4C3=O)cc2)no1` [Compound 2q, 4-(1,4-Dioxo-1,4-dihydronaphthalen-2-ylamino)-N-(5-methylisoxazol-3-yl)benzenesulfonamide], the IC50 in test [1] is over 100 µM.

Regarding `Cc1ccc(CN(C2=C(Cl)C(=O)c3ccccc3C2=O)c2ccc(S(=O)(=O)Nc3ccccn3)cc2)cc1` [Compound 6f, 4-((3-Chloro-1,4-dioxo-1,4-dihydronaphthalen-2-yl)(4-methylbenzyl)amino)-N-(pyridin-2-yl)benzenesulfonamide], the IC50 in test [1] is over 100 µM.

Regarding `Nc1ccc(S(=O)(=O)Nc2ccccn2)cc1` [sulfapyridine], the 50% inhibitory concentration (IC50) in test [1] was over 100 µM.

Regarding `O=C1C(Cl)=C(N(Cc2ccccc2)c2ccc(S(=O)(=O)Nc3ccccn3)cc2)C(=O)c2ccccc21` [Compound 6c, 4-(Benzyl(3-chloro-1,4-dioxo-1,4-dihydronaphthalen-2-yl)amino)-N-(pyridin-2-yl) benzenesulfonamide], the IC50 in test [1] (setting [6]) was over 100 µM.

Consider `O=C1C(Cl)=C(Cl)C(=O)c2ccccc21` [2,3-dichloronaphthoquinone], for which, in test [1] (setting [6]), the IC50 is over 100 µM.

As for `CCN(C1=C(Cl)C(=O)c2ccccc2C1=O)c1ccc(S(=O)(=O)Nc2ccccn2)cc1` [Compound 6b, 4-((3-Chloro-1,4-dioxo-1,4-dihydronaphthalen-2-yl)(ethyl)amino)-N-(pyridin-2-yl) benzenesulfonamide], the IC50 in test [1] (setting [6]) is over 100 µM.

As to “4-(6-amino-3-chloro-1,4-dioxo-1,4-dihydronaphthalen-2-ylamino)-N- (pyridin-2-yl)benzenesulfonamide and 4-(7-amino-3-chloro-1,4-dioxo-1,4-dihydronaphthalen-2-ylamino)- N-(pyridin-2-yl)benzenesulfonamide [Compound 8]”, the “inhibitory activity in the in vitro enzymatic assay” value in test [1] (CT-L, mixtures of isomers) was “did not lead to any appreciable inhibitory activities”.

In test [1], `O=C1C(Cl)=C(Nc2ccc(S(=O)(=O)Nc3ccc(F)cc3F)cc2)C(=O)c2ccccc21` [Compound 2v, 4-(3-Chloro-1,4-dioxo-1,4-dihydronaphthalen-2-ylamino)-N-(2,4-difluorophenyl)benzenesulfonamide] showed an IC50 of over 100 µM.

Consider `O=C(NS(=O)(=O)c1ccc(NC2=CC(=O)c3ccccc3C2=O)cc1)c1ccccc1` [Compound 2p, N-(4-(1,4-dioxo-1,4-dihydronaphthalen-2-ylamino)phenylsulfonyl)benzamide], for which, in test [1], the IC50 is over 100 µM.

`O=C1C(Cl)=C(N(Cc2ccc(C(F)(F)F)cc2)c2ccc(S(=O)(=O)Nc3ccccn3)cc2)C(=O)c2ccccc21` [Compound 6g, 4-((3-Chloro-1,4-dioxo-1,4-dihydronaphthalen-2-yl)(4-(trifluoromethyl)benzyl)amino)-N-(pyridin-2-yl)benzenesulfonamide]: the concentration for half-maximal inhibition (IC50) in test [1] was over 100 µM.

Turning to `CC1=C(Nc2ccc(S(=O)(=O)Nc3ccccn3)cc2)C(=O)c2ccccc2C1=O` [Compound 2k, 4-(3-Methyl-1,4-dioxo-1,4-dihydronaphthalen-2-ylamino)-N-(pyridin-2-yl)benzenesulfonamide], the IC50 in test [1] is over 100 µM.

For `COc1cnc(NS(=O)(=O)c2ccc(NC3=C(C)C(=O)c4ccccc4C3=O)cc2)nc1` [Compound 2m, N-(5-methoxypyrimidin-2-yl)-4-(3-methyl-1,4-dioxo-1,4-dihydronaphthalen-2-ylamino)-benzenesulfonamide], the IC50 in test [1] was over 100 µM.

On to `O=C1C(Cl)=C(N(Cc2ccc3ccccc3c2)c2ccc(S(=O)(=O)Nc3ccccn3)cc2)C(=O)c2ccccc21` [Compound 6e, 4-((3-Chloro-1,4-dioxo-1,4-dihydronaphthalen-2-yl)(naphthalen-2-ylmethyl)amino)-N-(pyridin-2-yl)benzenesulfonamide], for which, in test [1], the IC50 was over 100 µM.

Take `COc1cc(NS(=O)(=O)c2ccc(NC3=C(Cl)C(=O)c4ccccc4C3=O)cc2)nc(OC)n1` [Compound 2i, 4-(3-Chloro-1,4-dioxo-1,4-dihydronaphthalen-2-ylamino)-N-(2,6-dimethoxypyrimidin-4-yl)-benzenesulfonamide]: the IC50 in test [1] was determined as 100 µM.

`NS(=O)(=O)c1ccc(NC2=C(Cl)C(=O)c3ccccc3C2=O)cc1` [Compound 2t, 4-(3-Chloro-1,4-dioxo-1,4-dihydronaphthalen-2-ylamino)benzenesulfonamide] returned an IC50 in test [1] of over 100 µM.

`O=C1C=C(Nc2ccc(S(=O)(=O)Nc3ccccn3)cc2)C(=O)c2ccccc21` [Compound 2r, 4-(1,4-Dioxo-1,4-dihydronaphthalen-2-ylamino)-N-(pyridin-2-yl)benzenesulfonamide]: in test [1], the half-maximal inhibitory concentration (IC50) was over 100 µM.

Regarding `O=C1C(Cl)=C(Nc2ccc(S(=O)(=O)Nc3ccc(Cl)cc3Cl)cc2)C(=O)c2ccccc21` [Compound 2w, 4-(3-Chloro-1,4-dioxo-1,4-dihydronaphthalen-2-ylamino)-N-(2,4-dichlorophenyl)benzenesulfonamide], the IC50 in test [1] is over 100 µM.

Take `CN(C1=C(Cl)C(=O)c2ccccc2C1=O)c1ccc(S(=O)(=O)Nc2ccccn2)cc1` [Compound 6a, 4-((3-Chloro-1,4-dioxo-1,4-dihydronaphthalen-2-yl)(methyl)amino)-N-(pyridin-2-yl) benzenesulfonamide]: the IC50 in test [1] (setting [6]) is over 100 µM.

`CC(C)C[C@H](NC(=O)[C@H](Cc1ccccc1)NC(=O)c1cnccn1)B(O)O` [Bortezomib, reference compound]: in test [3], the “inhibition of CT-L activity of the 20S proteasome in the absence of dialysis” value came to 99% and the “time of dialysis at which CT-L activity started to recover” value is 4 h.

Compound `O=C1C=CC(=O)c2ccccc21` [1,4-naphthoquinone] registered a half-maximal inhibitory concentration (IC50) in test [1] of over 100 µM.
